# Read-outs that look alike come from different tables or passages of the source.
# How the values were obtained:
# Type in all cases: cell-based
# [1] = test system: A. baumannii wild type (WT); assay: MIC against A. baumannii isolate in RPMI + FCS
# [2] = test system: A. baumannii with Arr-mediated and RpoB mutation-mediated resistance
# [3] = test system: S. aureus (UAMS-1625 strain); assay: MIC by broth microdilution against S. aureus; conditions: Staphylococcus aureus, read-out: MIC S. aureus
# [4] = test system: A. baumannii (HUMC1 strain); assay: MIC by broth microdilution against A. baumannii in RPMI + 10% FCS; conditions: Acinetobacter baumannii; HUMC1 strain; RPMI + 10% FCS; read-out: MIC A. baumannii
# [5] = test system: M. abscessus subsp. abscessus ATCC 19977; assay: MIC against M. abscessus in Middlebrook 7H9 + ADC; conditions: Mycobacteroides abscessus, ATCC19977
# [6] = test system: M. kansasii (ATCC 12478); assay: MIC against M. kansasii in CAMHB + ADC; conditions: Mycobacterium kansasii, ATCC12478; ATCC 12478; CAMHB + ADC (5%); read-out: MIC M. kansasii
# [7] = test system: M. xenopi (ATCC 19250); assay: MIC against M. xenopi in CAMHB + ADC; conditions: Mycobacterium xenopi, ATCC19250; ATCC 19250; CAMHB + ADC (5%); read-out: MIC M. xenopi
# [8] = test system: M. avium (ATCC 25291); assay: MIC against M. avium in CAMHB + ADC; conditions: Mycobacterium avium, ATCC25291; ATCC 25291; CAMHB + ADC (5%); read-out: MIC M. avium
# [9] = test system: M. abscessus subsp. abscessus CCUG 71636; assay: MIC against M. abscessus isolate in 7H9 + ADC; conditions: Mycobacteroides abscessus, CCUG71636
# [10] = test system: M. abscessus subsp. abscessus CCUG 71382; assay: MIC against M. abscessus isolate in 7H9 + ADC; conditions: Mycobacteroides abscessus, CCUG71382
# [11] = test system: M. abscessus subsp. bolletii CCUG 50184; assay: MIC against M. abscessus isolate in 7H9 + ADC; conditions: Mycobacteroides abscessus, CCUG50184
# [12] = test system: M. abscessus subsp. massiliense CCUG 48898; assay: MIC against M. abscessus isolate in 7H9 + ADC; conditions: Mycobacteroides abscessus, CCUG48898
# [13] = test system: A. baumannii Arr-2; assay: microbe, parasite or virus in culture; conditions: Acinetobacter baumannii, ARR2, read-out: A. baumannii MIC in RPMI + FCS, Arr-2
# [14] = test system: A. baumannii RpoB H535Q mutant; assay: microbe, parasite or virus in culture; conditions: Acinetobacter baumannii, RPOBH535QMUTANT, read-out: A. baumannii MIC in RPMI + FCS, RpoB H535Q
# [15] = test system: A. baumannii RpoB H535C mutant; assay: microbe, parasite or virus in culture; conditions: Acinetobacter baumannii, RPOBH535CMUTANT, read-out: A. baumannii MIC in RPMI + FCS, RpoB H535C
# [16] = test system: A. baumannii RpoB H535L mutant; assay: microbe, parasite or virus in culture; conditions: Acinetobacter baumannii, RPOBH535LMUTANT, read-out: A. baumannii MIC in RPMI + FCS, RpoB H535L
# [17] = test system: Enterococcus faecium (strain NCTC 12204); assay: MIC against E. faecium; conditions: Enterococcus faecium
# [18] = test system: Enterococcus faecalis (strain ATCC 51575); assay: MIC against E. faecalis; conditions: Enterococcus faecalis, ATCC51575, CAMHB
# [19] = test system: Staphylococcus epidermidis (strain ATCC 12228); assay: MIC against S. epidermidis; conditions: Staphylococcus epidermidis, ATCC12228, CAMHB
# [20] = test system: Hemophilus influenzae (strain ATCC 49247); assay: MIC against H. influenzae; conditions: Haemophilus influenzae, ATCC49247, Hemophilus test medium broth
# [21] = test system: M. abscessus strains; assay: MIC over the five tested M. abscessus strains in 7H9 + ADC; conditions: Mycobacteroides abscessus, span over five isolates, read-out: MIC values against the tested M. abscessus strains
# [22] = test system: M. abscessus subsp. abscessus ATCC 19977; assay: MIC against M. abscessus isolate in CAMHB; conditions: Mycobacteroides abscessus, ATCC19977
# [23] = test system: M. abscessus subsp. abscessus CCUG 71636; assay: MIC against M. abscessus isolate in CAMHB
# [24] = test system: M. abscessus subsp. abscessus CCUG 71382; assay: MIC against M. abscessus isolate in CAMHB; conditions: Mycobacteroides abscessus, CCUG71382
# [25] = test system: M. abscessus subsp. bolletii CCUG 50184; assay: MIC against M. abscessus isolate in CAMHB; conditions: Mycobacteroides abscessus, CCUG50184
# [26] = test system: M. abscessus subsp. massiliense CCUG 48898; assay: MIC against M. abscessus isolate in CAMHB; conditions: Mycobacteroides abscessus, CCUG48898
# [27] = ATCC 19977, 7H9 + ADC, read-out: MIC M. abscessus
# [28] = read-out: M. abscessus MIC in 7H9 + ADC, abscessus ATCC 19977
# [29] = NCTC12204, strain NCTC 12204, CAMHB, read-out: MIC E. faecium
# [30] = Mycobacteroides abscessus, CCUG71636; read-out: M. abscessus MIC in CAMHB, abscessus CCUG 71636
# [31] = Acinetobacter baumannii; read-out: A. baumannii MIC in RPMI + FCS, WT
smiles,measurement,setting,value
"CO[C@H]1/C=C/O[C@@]2(C)Oc3c(C)c(O)c4c(c3C2=O)C(=O)C(N2CCOCC2)=C(NC(=O)/C(C)=C\C=C\[C@H](C)[C@H](O)[C@@H](C)[C@@H](O)[C@@H](C)[C@H](OC(=O)CC(=O)OCC2CCCN(C)C2)[C@@H]1C)C4=O (stereo partly drawn) [CGP4832, reference compound]",antibacterial activity against A. baumannii wild type strain,[1],did not exhibit strong activity
same,activity against A. baumannii with Arr- and RpoB mutation-mediated resistance,[2],lost activity compared with rifabutin
CO[C@H]1/C=C/O[C@@]2(C)Oc3c(C)c(O)c4c(c3C2=O)C2=NC3(CCN(CC(C)C)CC3)NC2=C(NC(=O)/C(C)=C\C=C\[C@H](C)[C@H](O)[C@@H](C)[C@@H](O)[C@@H](C)[C@H](OC(=O)CC(=O)OCC2CCCN(C)C2)[C@@H]1C)C4=O (stereo partly drawn) [Compound 3],MIC,[3],0.06 µg/mL
same,MIC,[4],≤ 0.002 µg/mL
same,MIC,[5]; [27],1 µg/mL
same,MIC,[5]; [28],1 µg/mL
same,MIC,[6],0.125 µg/mL
same,MIC,[7],1 µg/mL
same,MIC,[8],1 µg/mL
same,MIC,[9],0.5 µg/mL
same,MIC,[10],1 µg/mL
same,MIC,[11],0.5 µg/mL
same,MIC,[12],2 µg/mL
same,antibacterial activity against A. baumannii wild type strain,[1],retained strong antibacterial activity
same,MIC,"[1]; Acinetobacter baumannii, read-out: A. baumannii MIC in RPMI + FCS, WT",≤ 0.002 µg/mL
same,MIC,[13],≤ 0.002 µg/mL
same,MIC,[14],≤ 0.002 µg/mL
same,MIC,[15],0.008 µg/mL
same,MIC,[16],0.25 µg/mL
same,MIC,[17]; [29],1000 µg/mL
same,MIC,[18],2000 µg/mL
same,MIC,[19],≤ 2 µg/mL
same,MIC,[20],1000 µg/mL
same,MIC,[21],0.5 to 2 µg/mL
same,activity against A. baumannii with Arr- and RpoB mutation-mediated resistance,[2],overcame antibiotic resistance mechanisms
CO[C@H]1/C=C/OC2(C)Oc3c(C)c(O)c4c(c3C2=O)C2=NC3(CCN(CC(C)C)CC3)NC2=C(NC(=O)/C(C)=C\C=C\[C@H](C)[C@H](O)[C@@H](C)[C@@H](O)[C@@H](C)[C@H](OC(=O)CCCC(=O)N2CCC(N(C)c3ccccc3)CC2)[C@@H]1C)C4=O (stereo partly drawn) [Compound 85],MIC,[3],0.5 µg/mL
same,MIC,[4],0.03 µg/mL
same,MIC,[5]; [27],0.125 µg/mL
same,MIC,[6],0.008 µg/mL
same,MIC,[7],0.03 µg/mL
same,MIC,[8],0.25 µg/mL
same,MIC,[22],1 µg/mL
same,MIC,[23]; [30],0.5 µg/mL
same,MIC,[24],1 µg/mL
same,MIC,[25],1 µg/mL
same,MIC,[26],1 µg/mL
CO[C@H]1/C=C/O[C@@]2(C)Oc3c(C)c(O)c4c(c3C2=O)C2=NC3(CCN(CC(C)C)CC3)NC2=C(NC(=O)/C(C)=C\C=C\[C@H](C)[C@H](O)[C@@H](C)[C@@H](O)[C@@H](C)[C@H](OC(=O)CC(=O)NC2CCN(Cc3ccccc3)CC2)[C@@H]1C)C4=O [Compound 90],MIC,[3],0.125 µg/mL
same,MIC,[4],0.016 µg/mL
same,MIC,[5]; [27],0.25 µg/mL
same,MIC,[6],0.008 µg/mL
same,MIC,[7],0.25 µg/mL
same,MIC,[8],0.125 µg/mL
same,MIC,[22],1 µg/mL
same,MIC,"[23]; Mycobacteroides abscessus, CCUG71636, read-out: M. abscessus MIC in CAMHB, abscessus CCUG 71636",0.125 µg/mL
same,MIC,[24],1 µg/mL
same,MIC,[25],0.5 µg/mL
same,MIC,[26],1 µg/mL
CO[C@H]1/C=C/O[C@@]2(C)Oc3c(C)c(O)c4c(c3C2=O)C2=NC3(CCN(CC(C)C)CC3)NC2=C(NC(=O)/C(C)=C\C=C\[C@H](C)[C@H](O)[C@@H](C)[C@@H](O)[C@@H](C)[C@H](OC(=O)CC(=O)N2CCN(CC3CCCCC3)CC2)[C@@H]1C)C4=O [Compound 98],MIC,[3],0.5 µg/mL
same,MIC,[4],0.03 µg/mL
same,MIC,[5]; [27],0.125 µg/mL
same,MIC,[6],0.002 µg/mL
same,MIC,[7],0.016 µg/mL
same,MIC,[8],0.03 µg/mL
same,MIC,[22],0.25 µg/mL
same,MIC,[23]; [30],0.125 µg/mL
same,MIC,[24],0.5 µg/mL
same,MIC,[25],0.25 µg/mL
same,MIC,[26],0.5 µg/mL
"CO[C@H]1/C=C/O[C@@]2(C)Oc3c(C)c(O)c4c(c3C2=O)C2=NC3(CCN(CC(C)C)CC3)NC2=C(NC(=O)/C(C)=C\C=C\[C@H](C)[C@H](O)[C@@H](C)[C@@H](O)[C@@H](C)[C@H](OC(C)=O)[C@@H]1C)C4=O [Rifabutin, rifabutin]",MIC,[3],0.016 µg/mL
same,MIC,[4],≤ 0.002 µg/mL
same,MIC,[5]; [27],8 µg/mL
same,MIC,[5]; [28],8 µg/mL
same,MIC,[6],0.001 µg/mL
same,MIC,[7],0.03 µg/mL
same,MIC,[8],0.125 µg/mL
same,MIC,[9],4 µg/mL
same,MIC,[10],16 µg/mL
same,MIC,[11],8 µg/mL
same,MIC,[12],2 µg/mL
same,MIC,[22],16 µg/mL
same,MIC,[23]; [30],2 µg/mL
same,MIC,[24],> 16 µg/mL
same,MIC,[25],16 µg/mL
same,MIC,[26],8 µg/mL
same,MIC,[1]; [31],≤ 0.002 µg/mL
same,MIC,[13],0.125 µg/mL
same,MIC,[14],0.004 µg/mL
same,MIC,[15],0.03 µg/mL
same,MIC,[16],> 32 µg/mL
same,MIC,"[17]; NCTC12204, read-out: MIC E. faecium",125 µg/mL
same,MIC,[18],4000 µg/mL
same,MIC,[19],4 µg/mL
same,MIC,[20],500 µg/mL
same,MIC,[21],2 to 16 µg/mL
"CO[C@H]1/C=C/O[C@@]2(C)Oc3c(C)c(O)c4c(O)c(c(/C=N/N5CCN(C)CC5)c(O)c4c3C2=O)NC(=O)/C(C)=C\C=C\[C@H](C)[C@H](O)[C@@H](C)[C@@H](O)[C@@H](C)[C@H](OC(C)=O)[C@@H]1C [Rifampicin, rifampicin]",MIC,[5]; [28],> 32 µg/mL
same,MIC,[9],> 32 µg/mL
same,MIC,[10],> 32 µg/mL
same,MIC,[11],> 32 µg/mL
same,MIC,[12],32 µg/mL
same,MIC,[1]; [31],32 µg/mL
same,MIC,[13],> 32 µg/mL
same,MIC,[14],> 32 µg/mL
same,MIC,[15],> 32 µg/mL
same,MIC,[16],> 32 µg/mL
same,MIC,[17]; [29],500 µg/mL
same,MIC,[18],1000 µg/mL
same,MIC,[19],≤ 2 µg/mL
same,MIC,[20],250 µg/mL
same,MIC,[21],> 32 µg/mL

# Reference: patent publication US20250051356A1, “RIFABUTIN ANALOGS FOR THE TREATMENT OF DISEASE” (priority 2021, published 2025)
